Data as given in article PMC9820430, “New Affordable Methods for Large-Scale Isolation of Major Olive Secoiridoids and Systematic Comparative Study of Their Antiproliferative/Cytotoxic Effect on Multiple Cancer Cell Lines of Different Cancer Origins” (International Journal of Molecular Sciences, 2022).

Key:
[1] = tested on: MCF-7/TR (tamoxifen-resistant); parameters: method as in Mazzei et al. (2020) 27; conditions: ref Mazzei et al. (2020) 27; cited from earlier work
A2058 = test: EdU incorporation cell proliferation assay, 24 h; assay type: cell-based, human; conditions: for % EdU +ve ± SE (S-phase cells): 24 h treatment at EC50 concentration
Procedure: For this purpose, ten cancer cell lines (i.e., MDA-MB 231, SK-BR-3, MCF-7, A2058, SK-MEL-28, AGS, HepG-2, PANC-1, H1299 and Hela) originating from breast, melanoma, stomach, hepatic, pancreatic, lung and cervical tumors were analyzed in parallel with control samples (i.e., the same cells treated only with 0.2% (v/v) DMSO). […] Subsequently, the treated cells were allowed to incorporate 5-ethynyl-2′-deoxyuridine (EdU) into replicating DNA according to the protocol described in detail in the Experimental Section. EdU, a thymidine analog, can be incorporated into DNA in vivo and detected later by using copper-catalyzed azide–alkyne cycloaddition (click reaction) without prior DNA denaturation. The pool of cells in the S phase can be then easily detected by fluorescence (FL) microscopy or by flow cytometry by analyzing the incorporation of EdU in replicating DNA of single cells. In this study, after EdU incorporation, the nuclei of the entire cell population were stained with Hoechst and imaged by confocal microscopy (Experimental Section). EdU-positive nuclei, marked by green FL, as well as the total number of nuclei, marked by blue FL, were enumerated by applying the Icy image analysis algorithm on the digital images acquired by confocal microscopy.
Human cancer cells were plated onto sterile glass coverslips (10-mm diameter, 5161063, ThermoFisher Scientific, Waltham, MA, USA) in 24-well tissue culture plates, at a density 5 times the density of cells seeded in 96-well plate and at a final medium volume of 500 μL. In order to obtain homogeneous plating, 250 μL of the medium was added directly to the wells already containing coverslips. Using a tip perpendicularly, coverslips were pressed in order to ensure their attachment to the bottom of the well. The cells were then seeded by adding 250 μL of single-cell suspension drop by drop following a cross path. Immediately after seeding, the plate was shaken back and forth at least ten times to achieve homogeneous plating. The cells were allowed to adhere overnight (~16 h) at 37 °C and 5% (v/v) CO2. The next day, a volume of 500 μL fresh medium was added to each well and the treatment with OOPs was initiated by adding directly to the wells 2 μL of OOPs from the 500× stock in DMSO and immediately mixed afterward by pipetting. […] Control cells were prepared under the same experimental conditions using DMSO instead of the OOPs’ solutions in DMSO at the same final concentration (0.2% (v/v) DMSO). […] Each condition was performed in duplicate. After treatment with the OOPs, live proliferating mammalian cells were labeled with 5-ethynyl-2’-deoxyuridine (EdU), a nucleoside analog of thymidine, using the Cell proliferation kit III (EdU-FM, PK-CA724-488FM, Promokine, Heidelberg, Germany). More specifically, a 20 μM EdU solution from a 10 mM stock in DMSO was prepared in a fresh culture medium. Culture supernatant was removed from treated cells to leave only 250 μL. An equal volume of 20 μM EdU solution was added and mixed with the medium to obtain a 10 μΜ EdU final concentration. The treated cells were incubated for the desired time of pulse length (2–4 h) under conditions optimal for each cell type depending on each cell line’s doubling time. Following incubation, cells were washed twice with PBS, then fixed with 4% (w/v) paraformaldehyde in PBS for 15 min at room temperature (RT), and subsequently washed twice with 3% (w/v) BSA for 5 min each time. Cells were permeabilized by incubation (20 min, RT, in the dark) with 0.5% (v/v) Triton-X 100 in PBS. Following permeabilization the cells were washed twice with 3% (w/v) BSA in PBS and incubated for 30 min with the reaction cocktail, according to the instructions of the Cell proliferation kit III (EdU-488; FM). After staining for replicating DNA, the cells were washed three times with 3% (w/v) BSA in PBS, and were then incubated (10 min, at RT) with Hoechst 33342 in PBS (1:10.000) to visualize all the nuclei. […]

SK-BR-3 cells = test: Deactivation in culture medium (direct addition vs pre-incubation), ATP assay 48 h; assay type: cell-based, human; conditions: 20 and 40 μM, 15 min pre-incubation in culture medium vs direct addition
Procedure: The other OOPs tested were not affected similarly (Figure S3B). […] It was therefore decided for all the experiments presented in this manuscript and the assays performed to calculate the EC50 values to add all the OOPs tested directly to the culture medium.
Viable cell numbers were determined using the ATP-based luminescence assay after 48 h of treatment. The compound was added to the cells either directly or after incubation with the culture medium for 15 min. The results presented are from four independent experiments performed in triplicate. Bar graphs represent the mean cell count ± SE in each treatment group normalized to the control group (i.e., cells treated only with 0.2% (v/v) DMSO). * p < 0.05; ** p ≤ 0.01 (t-test) comparing the two different treatment methods.

Hela cells = conditions: cited from earlier work
Caco-2 cells = conditions: cited from earlier work

In the case of `COC(=O)C1=COC(C)[C@@H](C=O)[C@@H]1CC(=O)OCCc1ccc(O)c(O)c1` (mixture of isomers) [3a,b, oleuropein aglycone], the EC50 [1] is listed as 70 µM, the “% Inhibition ± SE of cell proliferation” value (A2058; 24 h at EC50, normalized with the control) is listed as 15.0 ± 10.3% and the “% EdU +ve ± SE (S-phase cells)” value (A2058) is listed as 23.7 ± 5.8%.

In the case of `C/C=C(/C=O)[C@@H](CC=O)CC(=O)OCCc1ccc(O)cc1` [compound 1, oleocanthal], the “stability/deactivation in the cell culture medium” value (SK-BR-3 cells) is given as “partially deactivated”, the EC50 (Hela cells) is given as > 150 µM and the “% EdU +ve ± SE (S-phase cells)” value (A2058) is given as 25.5 ± 5.3%. The EC50 (Caco-2 cells) was > 150 µM.
